In patent US20230181514A1, “NEW TRIGLYCERIDE OBTAINED FROM A MACROCYBE TITANS EXTRACT, CLINICAL APPLICATIONS AND PRODUCTION METHOD” (BIO TECH STARE GLOBAL S.R.L., priority 2020, published 2023):
Entries after “also recorded” stand apart in the source; their conditions may differ.

Tests used:
[1] = system: actin cytoskeleton of NL20 cells; assay: Modulation of the actin cytoskeleton (Bodipy-falacidine staining, confocal), non-tumor cells; type: cell-based, human; conditions: 0.03 mg/ml, 24-hour treatment
Excerpt: (§1) Many antitumor substances exert their effects by modulating the cytoskeleton of tumor cells, either acting on microtubules or on actin filaments (Zhang S, Menche D, Zahler S, Vollmer A M, Liebl J, Forster F. In vitro anti-cancer effects of the actin-binding natural compound rhizopodin. Pharmazie 2015; 70:610-5.). To check whether compound TG10 has a similar mechanism of action as other antitumor drugs, tumor cells (A549) and non-tumor cells (NL20) were subjected to a 24-hour treatment with 0.03 mg/ml TG10. At the end of this time, the cells were fixed with 10% formaldehyde for 10 min, permeabilized with 0.1% Triton X-100 for 10 min and exposed to 1: 200 Bodipy-falacidine and 1: 1000 DAPI (Molecular Probes) for 1 h. The images were obtained with a confocal laser microscope (TCS SP5, Leica).

[2] = system: A549 (lung adenocarcinoma); assay: Cytotoxicity test (Cell Titer, 5 days), tumor line; type: cell-based, human
Experimental: (§2) Extracts (aqueous, ethyl, acidic) were obtained from 9 macrofungi species collected by INBio in the Costa Rican rainforests. All of them were subjected to a cytotoxicity test with two human cell lines: A549 (lung adenocarcinoma) and NL20 (immortalized, non-tumor line, obtained from the pulmonary epithelium). Cells were plated in 96-well plates at densities of 2,000 (A549) or 10,000 (NL20) cells per well. Once the cells were stuck to the bottom, serial concentrations of each extract were added and incubated at 37° C. for 5 days under a humidified atmosphere (85% relative humidity) and containing 5% CO2. Eight repeats (wells) were studied for each concentration. At the end of the incubation process, 20 μl of Cell Titer (Promega) were added per well and left for 4 h to allow the formation of the colored formazan salts. Colorimetric quantification was performed with a plate reader (POLARstar Omega) using a wavelength of 490 nm, following already published protocols (Coderch C, Diaz de C M, Zapico J M, Pelaez R, Larrayoz I M, Ramos A, et al. In silico identification and in vivo characterization of small molecule therapeutic hypothermia mimetics. Bioorg Med Chem 2017; 25:6597-604). […]

[3] = system: A549 xenograft tumors; assay: Human lung cancer xenografts in immunosuppressed mice; type: in vivo, mice (NOD scid gamma)
Experimental: In this case, 20 male mice of the NOD scid gamma strain (NSG, Stock No. 005557, The Jackson Laboratory) were used. All of them were injected subcutaneously with 10 million A549 cells and left for 2 weeks until the tumors became measurable. Two groups of 10 mice each were randomized and marked as control group (diamonds) and TG10-treated group (squares). From this point, intratumor injections with 100 μl of PBS (control group) or 0.1 mg/ml of TG10 in PBS (treated group) were applied 3 times per week. Before each injection, tumor volumes were measured with a caliper. The mice were euthanized when the tumors reached a size incompatible with animal welfare.

[4] = system: NL20 (immortalized, non-tumor line, pulmonary epithelium); assay: Cytotoxicity test (Cell Titer, 5 days), non-tumor line; type: cell-based, human
Experimental: as §2

[5] = system: actin cytoskeleton of A549 cells; assay: Modulation of the actin cytoskeleton (Bodipy-falacidine staining, confocal), tumor cells; type: cell-based, human; conditions: 0.03 mg/ml, 24-hour treatment
Excerpt: as §1

With `CCCCC/C=C\C/C=C\CCCCCCCC(=O)OC[C@@H](COC(=O)CCCCCCC/C=C\CCCCCCCC)OC(=O)CCCCCCCCCCCCCCC` [TG10, 2R-TG (C18:2, 9z, 12z; C16:0; C18:1, 9z)] the “Effect on actin fibers of NL20 cells” value [1] was “maintained the filamentous structure of actin”, the “Antitumor activity against A549 (toxicity test of synthesized TGs)” value [2] was “exhibited antitumor activity; also recorded: TG10 (active)” and the “Tumor growth versus control (in words)” value ([3]; intratumor 0.1 mg/ml in PBS, 3 times per week, FIG. 5) was “continued to grow, but at a slower rate”. For the same compound, the “Average tumor volume at the end of the experiment” value ([3]; intratumor 100 μl of 0.1 mg/ml in PBS, 3 times per week from day 15, end day 48, control 2900 mm^3, p<0.05) was 1600 mm^3, the “Toxicity to normal cells (NL20)” value [4] was “not toxic to normal cells” and the “Effect on actin fibers of A549 cells” value [5] was “completely lost the polymerized actin fibers”.

For “2S-TG (C18:2, 9z, 12z; C16:0; C18:1, 9z) [TG9]”, the “Antitumor activity against A549 (toxicity test of synthesized TGs)” value [2] was “no effect on cells” and the “Toxicity to normal cells (NL20)” value [4] was “no effect on cells”.
